According to ChEMBL document CHEMBL3045437, “Synthesis of potential anticancer derivatives of pyrido[1,2-a]benzimidazoles” (Med Chem Res, 2012):
Converted amounts (≈) assume the structure as drawn.

What follows are molecules tested on MCF7 (assay: Cytotoxicity against Homo sapiens (human) MCF7 cells after 48 hr by SRB assay). Settings: MCF7, 48 h.
Assay type: functional, cell-based

Question: How did the IC50 turn out when N#Cc1c(-c2ccccc2)cc(Cl)n2c1nc1ccc(C(=O)O)cc12 was run?
Answer: Its IC50 is 3.58 µg/mL (≈ 10.3 µM).

Question: How did the IC50 turn out when Cc1c(CCCl)c(Cl)n2c(nc3ccc(Cl)cc32)c1C#N was run?
Answer: Its IC50 is 7.09 µg/mL (≈ 20.9 µM).

Question: How did the IC50 turn out when Cc1c(CCCl)c(Cl)n2c(nc3ccc(C(=O)O)cc32)c1C#N was run?
Answer: The IC50 was 9.07 µg/mL (≈ 26 µM).

Question: Cc1cc(N2CCN(c3ccccc3F)CC2)n2c(nc3ccc(Cl)cc32)c1C#N was tested. Which IC50 did it give?
Answer: The IC50 was 5.72 µg/mL (≈ 13.6 µM).

Question: For Cc1cc(N2CCN(c3ccccc3F)CC2)n2c(nc3ccc(C(=O)O)cc32)c1C#N, which IC50 is on record?
Answer: The IC50 was 12.6 µg/mL (≈ 29.3 µM).

Question: N#Cc1c(-c2ccccc2)cc(N2CCN(c3ccccc3F)CC2)n2c1nc1ccc(Cl)cc12 was tested. Which IC50 did it give?
Answer: Its IC50 is 10.4 µg/mL (≈ 21.6 µM).

Question: How did the IC50 turn out when N#Cc1c(-c2ccccc2)cc(N2CCN(c3ccccc3F)CC2)n2c1nc1ccc(C(=O)O)cc12 was run?
Answer: The IC50 was 17.6 µg/mL (≈ 35.9 µM).

Question: With Cc1c(CCN2CCN(c3ccccc3F)CC2)c(N2CCN(c3ccccc3F)CC2)n2c(nc3ccc(Cl)cc32)c1C#N as the molecule, how does the IC50 read?
Answer: The IC50 was 14 µg/mL (≈ 22.4 µM).

Question: Which IC50 does the source give for Cc1c(CCN2CCN(c3ccccc3F)CC2)c(N2CCN(c3ccccc3F)CC2)n2c(nc3ccc(C(=O)O)cc32)c1C#N here?
Answer: Its IC50 is 9.9 µg/mL (≈ 15.6 µM).

Question: How did the IC50 turn out when Cc1cc(=O)n2c([nH]c3ccc(Cl)cc32)c1C#N was run?
Answer: The IC50 was 3.43 µg/mL (≈ 13.3 µM).

Question: How did the IC50 turn out when Cc1cc(=O)n2c([nH]c3ccc(C(=O)O)cc32)c1C#N was run?
Answer: The IC50 was 14.7 µg/mL (≈ 55 µM).

Question: With N#Cc1c(-c2ccccc2)cc(=O)n2c1[nH]c1ccc(Cl)cc12 as the molecule, how does the IC50 read?
Answer: The IC50 was 3.58 µg/mL (≈ 11.2 µM).

Question: N#Cc1c(-c2ccccc2)cc(=O)n2c1[nH]c1ccc(C(=O)O)cc12 was tested. Which IC50 did it give?
Answer: The IC50 was 3.99 µg/mL (≈ 12.1 µM).

Question: For Cc1c(CCO)c(=O)n2c([nH]c3ccc(Cl)cc32)c1C#N, which IC50 is on record?
Answer: The IC50 was 14.6 µg/mL (≈ 48.5 µM).

Question: How did the IC50 turn out when Cc1c(CCO)c(=O)n2c([nH]c3ccc(C(=O)O)cc32)c1C#N was run?
Answer: The IC50 was 10.5 µg/mL (≈ 33.9 µM).

Question: With Cc1cc(Cl)n2c(nc3ccc(Cl)cc32)c1C#N as the molecule, how does the IC50 read?
Answer: The IC50 was 8.61 µg/mL (≈ 31.2 µM).

Question: With Cc1cc(Cl)n2c(nc3ccc(C(=O)O)cc32)c1C#N as the molecule, how does the IC50 read?
Answer: The IC50 was 12.8 µg/mL (≈ 44.9 µM).

Question: N#Cc1c(-c2ccccc2)cc(Cl)n2c1nc1ccc(Cl)cc12 was tested. Which IC50 did it give?
Answer: The IC50 was 3.89 µg/mL (≈ 11.5 µM).
